{"source": "ChEMBL document CHEMBL4507261", "about": "“Data for DCP probe A-192621” (2021)", "key": {"Endothelin-1 receptor": {"target": "T1, Endothelin-1 receptor (Homo sapiens, UniProt P25101)", "T1 sequence (P25101 whole entry)": "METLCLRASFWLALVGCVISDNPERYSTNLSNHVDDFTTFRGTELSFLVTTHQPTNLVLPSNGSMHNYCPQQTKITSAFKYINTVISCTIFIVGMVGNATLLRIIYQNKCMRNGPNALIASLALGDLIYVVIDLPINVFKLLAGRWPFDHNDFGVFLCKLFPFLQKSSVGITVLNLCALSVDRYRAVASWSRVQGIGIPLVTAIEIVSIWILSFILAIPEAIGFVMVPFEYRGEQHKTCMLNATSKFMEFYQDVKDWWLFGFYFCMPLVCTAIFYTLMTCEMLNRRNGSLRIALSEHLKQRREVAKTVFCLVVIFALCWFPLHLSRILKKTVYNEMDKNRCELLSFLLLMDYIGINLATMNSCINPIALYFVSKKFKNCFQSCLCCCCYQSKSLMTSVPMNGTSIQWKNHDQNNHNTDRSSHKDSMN", "test": "EDNRA- dependent phosphatidylinositol hydrolysis assay", "type": "functional"}, "[1]": {"target": "Endothelin receptor type B (Homo sapiens, UniProt P24530)", "sequence (P24530 whole entry)": "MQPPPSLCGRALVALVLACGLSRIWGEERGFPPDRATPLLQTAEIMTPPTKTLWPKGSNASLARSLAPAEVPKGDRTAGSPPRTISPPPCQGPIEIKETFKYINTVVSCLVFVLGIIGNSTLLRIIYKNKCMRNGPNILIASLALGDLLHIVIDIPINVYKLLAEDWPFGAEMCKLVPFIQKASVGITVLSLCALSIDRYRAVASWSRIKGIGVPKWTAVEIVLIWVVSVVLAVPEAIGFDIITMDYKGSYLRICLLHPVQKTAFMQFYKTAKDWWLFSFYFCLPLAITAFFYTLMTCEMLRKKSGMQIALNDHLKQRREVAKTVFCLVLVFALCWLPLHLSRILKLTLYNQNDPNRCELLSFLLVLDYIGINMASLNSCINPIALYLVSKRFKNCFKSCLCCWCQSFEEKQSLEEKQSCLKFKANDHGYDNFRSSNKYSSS", "test": "Eurofins cellular functional assay - Antagonist (EDNRB)"}, "[2]": {"target": "5-hydroxytryptamine receptor 2B (Homo sapiens) (UniProt P41595)", "sequence (P41595 whole entry)": "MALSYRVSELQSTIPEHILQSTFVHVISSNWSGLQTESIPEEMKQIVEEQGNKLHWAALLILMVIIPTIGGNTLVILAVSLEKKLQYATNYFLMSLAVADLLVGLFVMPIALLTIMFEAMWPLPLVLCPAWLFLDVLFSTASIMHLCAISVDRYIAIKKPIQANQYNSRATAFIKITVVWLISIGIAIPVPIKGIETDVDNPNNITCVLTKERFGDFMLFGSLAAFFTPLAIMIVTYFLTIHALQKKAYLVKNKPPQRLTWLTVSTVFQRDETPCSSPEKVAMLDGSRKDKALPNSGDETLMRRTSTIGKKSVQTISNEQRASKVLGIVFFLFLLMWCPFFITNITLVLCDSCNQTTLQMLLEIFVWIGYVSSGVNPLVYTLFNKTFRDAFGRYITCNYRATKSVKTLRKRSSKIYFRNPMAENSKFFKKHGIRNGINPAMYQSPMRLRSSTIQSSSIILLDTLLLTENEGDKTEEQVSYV", "conditions": "Compound concentration 10.0 uM"}, "[3]": {"target": "5-hydroxytryptamine receptor 5A (Homo sapiens) (UniProt P47898)", "sequence (P47898 whole entry)": "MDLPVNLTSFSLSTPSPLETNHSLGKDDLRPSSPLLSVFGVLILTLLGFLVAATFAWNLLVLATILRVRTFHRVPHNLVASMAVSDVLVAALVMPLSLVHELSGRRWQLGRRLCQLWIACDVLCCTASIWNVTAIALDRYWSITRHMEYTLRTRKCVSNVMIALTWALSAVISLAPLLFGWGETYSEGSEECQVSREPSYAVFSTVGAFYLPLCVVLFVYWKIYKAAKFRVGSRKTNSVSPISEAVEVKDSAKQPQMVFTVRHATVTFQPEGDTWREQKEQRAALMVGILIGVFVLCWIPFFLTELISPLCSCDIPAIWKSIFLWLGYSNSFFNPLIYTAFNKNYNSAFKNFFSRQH", "conditions": "Compound concentration 10.0 uM"}, "[4]": {"target": "D(1A) dopamine receptor (Homo sapiens) (UniProt P21728)", "sequence (P21728 whole entry)": "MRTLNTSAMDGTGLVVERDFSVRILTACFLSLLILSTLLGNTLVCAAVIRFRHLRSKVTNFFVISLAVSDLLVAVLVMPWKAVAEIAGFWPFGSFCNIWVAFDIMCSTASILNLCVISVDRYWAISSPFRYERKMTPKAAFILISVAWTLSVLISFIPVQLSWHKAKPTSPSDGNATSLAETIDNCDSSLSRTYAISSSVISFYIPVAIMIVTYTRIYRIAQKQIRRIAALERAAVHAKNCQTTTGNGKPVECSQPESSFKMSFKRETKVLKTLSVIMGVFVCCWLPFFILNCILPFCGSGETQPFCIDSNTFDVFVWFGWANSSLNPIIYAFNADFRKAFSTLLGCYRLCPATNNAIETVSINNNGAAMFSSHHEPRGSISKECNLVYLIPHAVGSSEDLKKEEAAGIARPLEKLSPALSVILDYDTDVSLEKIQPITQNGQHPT", "conditions": "Compound concentration 10.0 uM"}, "[5]": {"target": "D(4) dopamine receptor (Homo sapiens) (UniProt P21917)", "sequence (P21917 whole entry)": "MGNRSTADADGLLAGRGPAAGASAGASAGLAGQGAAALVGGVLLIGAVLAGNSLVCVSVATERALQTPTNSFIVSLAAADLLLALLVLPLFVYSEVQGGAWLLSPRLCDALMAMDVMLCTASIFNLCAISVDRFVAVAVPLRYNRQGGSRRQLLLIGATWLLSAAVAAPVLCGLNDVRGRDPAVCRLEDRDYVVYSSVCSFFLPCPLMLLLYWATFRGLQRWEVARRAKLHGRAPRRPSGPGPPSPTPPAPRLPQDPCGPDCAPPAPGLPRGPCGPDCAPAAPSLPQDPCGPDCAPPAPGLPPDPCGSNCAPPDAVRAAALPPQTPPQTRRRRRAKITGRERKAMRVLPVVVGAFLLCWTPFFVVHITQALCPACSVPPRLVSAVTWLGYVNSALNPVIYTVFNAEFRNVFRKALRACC", "conditions": "Compound concentration 10.0 uM"}, "[6]": {"target": "Sodium-dependent serotonin transporter (Homo sapiens) (UniProt P31645)", "sequence (P31645 whole entry, looked up)": "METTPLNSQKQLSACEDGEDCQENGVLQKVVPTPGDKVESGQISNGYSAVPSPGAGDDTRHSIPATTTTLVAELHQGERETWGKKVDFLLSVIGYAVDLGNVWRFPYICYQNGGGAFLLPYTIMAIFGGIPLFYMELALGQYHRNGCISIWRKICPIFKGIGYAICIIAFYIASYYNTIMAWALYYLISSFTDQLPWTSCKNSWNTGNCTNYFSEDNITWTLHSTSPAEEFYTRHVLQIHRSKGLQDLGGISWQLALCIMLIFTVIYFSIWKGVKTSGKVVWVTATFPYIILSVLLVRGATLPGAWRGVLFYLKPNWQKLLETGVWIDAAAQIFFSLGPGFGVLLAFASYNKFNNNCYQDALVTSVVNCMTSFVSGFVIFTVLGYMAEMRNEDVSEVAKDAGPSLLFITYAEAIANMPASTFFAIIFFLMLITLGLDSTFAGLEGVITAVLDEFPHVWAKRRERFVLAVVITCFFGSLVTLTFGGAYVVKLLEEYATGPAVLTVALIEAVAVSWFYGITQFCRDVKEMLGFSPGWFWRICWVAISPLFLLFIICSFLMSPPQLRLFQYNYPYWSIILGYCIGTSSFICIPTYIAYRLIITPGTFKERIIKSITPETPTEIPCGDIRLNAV", "conditions": "Compound concentration 10.0 uM"}, "[7]": {"target": "T2, Alpha-1B adrenergic receptor (Homo sapiens) (UniProt P35368)", "T2 sequence (whole entry)": "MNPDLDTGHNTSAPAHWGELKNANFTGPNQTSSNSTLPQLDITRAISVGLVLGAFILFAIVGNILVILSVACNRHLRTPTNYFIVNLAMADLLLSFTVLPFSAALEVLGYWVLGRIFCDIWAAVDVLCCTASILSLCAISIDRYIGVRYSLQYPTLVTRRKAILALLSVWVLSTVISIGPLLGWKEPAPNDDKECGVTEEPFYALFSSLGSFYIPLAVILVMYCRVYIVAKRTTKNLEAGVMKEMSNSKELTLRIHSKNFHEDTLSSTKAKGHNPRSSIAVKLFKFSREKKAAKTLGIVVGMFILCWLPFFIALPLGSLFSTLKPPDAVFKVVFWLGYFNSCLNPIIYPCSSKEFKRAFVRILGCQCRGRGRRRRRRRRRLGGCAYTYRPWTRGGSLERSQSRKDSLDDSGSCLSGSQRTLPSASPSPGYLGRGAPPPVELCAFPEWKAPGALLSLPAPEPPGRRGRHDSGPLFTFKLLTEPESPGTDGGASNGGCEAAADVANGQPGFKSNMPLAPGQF", "conditions": "Compound concentration 10.0 uM"}, "[8]": {"target": "T3, Alpha-2B adrenergic receptor (Homo sapiens) (UniProt P18089)", "T3 sequence (whole entry)": "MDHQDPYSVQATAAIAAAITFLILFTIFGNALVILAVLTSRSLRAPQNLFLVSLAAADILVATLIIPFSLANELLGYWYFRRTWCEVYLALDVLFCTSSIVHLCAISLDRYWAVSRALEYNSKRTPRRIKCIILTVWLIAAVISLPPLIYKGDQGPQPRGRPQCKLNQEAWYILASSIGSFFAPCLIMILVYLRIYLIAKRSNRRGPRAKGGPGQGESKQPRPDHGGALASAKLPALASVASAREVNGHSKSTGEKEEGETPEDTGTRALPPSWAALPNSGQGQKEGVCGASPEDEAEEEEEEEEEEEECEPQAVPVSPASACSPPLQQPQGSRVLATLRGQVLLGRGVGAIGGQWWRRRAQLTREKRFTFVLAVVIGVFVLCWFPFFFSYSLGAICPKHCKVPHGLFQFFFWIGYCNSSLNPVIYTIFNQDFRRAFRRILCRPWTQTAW", "conditions": "Compound concentration 10.0 uM"}, "[9]": {"target": "Muscarinic acetylcholine receptor M3 (Homo sapiens) (UniProt P20309)", "sequence (P20309 whole entry, looked up)": "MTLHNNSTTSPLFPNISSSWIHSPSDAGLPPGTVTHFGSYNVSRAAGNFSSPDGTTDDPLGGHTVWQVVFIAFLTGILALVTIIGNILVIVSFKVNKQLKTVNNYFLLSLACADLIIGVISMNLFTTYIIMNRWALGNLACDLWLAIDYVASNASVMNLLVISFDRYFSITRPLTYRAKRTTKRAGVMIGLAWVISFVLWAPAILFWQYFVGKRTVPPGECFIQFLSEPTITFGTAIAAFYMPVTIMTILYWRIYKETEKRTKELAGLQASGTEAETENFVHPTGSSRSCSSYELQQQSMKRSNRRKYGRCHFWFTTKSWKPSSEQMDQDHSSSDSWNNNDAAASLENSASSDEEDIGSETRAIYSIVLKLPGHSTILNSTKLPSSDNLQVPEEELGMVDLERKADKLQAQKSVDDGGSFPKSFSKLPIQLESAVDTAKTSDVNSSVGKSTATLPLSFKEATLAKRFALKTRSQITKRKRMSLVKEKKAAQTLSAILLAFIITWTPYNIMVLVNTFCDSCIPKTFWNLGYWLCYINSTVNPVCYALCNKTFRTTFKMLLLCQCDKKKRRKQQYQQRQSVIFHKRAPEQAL", "conditions": "Compound concentration 10.0 uM"}, "[10]": {"target": "T4, Muscarinic acetylcholine receptor M4 (Homo sapiens) (UniProt P08173)", "T4 sequence (whole entry)": "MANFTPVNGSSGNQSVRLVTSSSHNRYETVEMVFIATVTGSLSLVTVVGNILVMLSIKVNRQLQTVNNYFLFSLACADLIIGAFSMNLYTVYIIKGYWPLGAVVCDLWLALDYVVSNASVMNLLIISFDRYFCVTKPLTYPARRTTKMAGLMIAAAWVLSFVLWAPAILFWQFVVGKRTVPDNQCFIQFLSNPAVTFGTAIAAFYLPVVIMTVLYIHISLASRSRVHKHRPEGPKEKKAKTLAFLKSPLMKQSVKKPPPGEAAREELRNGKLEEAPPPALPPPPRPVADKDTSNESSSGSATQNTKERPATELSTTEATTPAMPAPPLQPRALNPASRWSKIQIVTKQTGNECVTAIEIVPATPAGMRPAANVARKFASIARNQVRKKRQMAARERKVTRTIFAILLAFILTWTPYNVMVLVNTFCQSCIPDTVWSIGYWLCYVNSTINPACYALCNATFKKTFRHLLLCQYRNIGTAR", "conditions": "Compound concentration 10.0 uM"}, "[11]": {"target": "T5, Muscarinic acetylcholine receptor M5 (Homo sapiens) (UniProt P08912)", "T5 sequence (whole entry)": "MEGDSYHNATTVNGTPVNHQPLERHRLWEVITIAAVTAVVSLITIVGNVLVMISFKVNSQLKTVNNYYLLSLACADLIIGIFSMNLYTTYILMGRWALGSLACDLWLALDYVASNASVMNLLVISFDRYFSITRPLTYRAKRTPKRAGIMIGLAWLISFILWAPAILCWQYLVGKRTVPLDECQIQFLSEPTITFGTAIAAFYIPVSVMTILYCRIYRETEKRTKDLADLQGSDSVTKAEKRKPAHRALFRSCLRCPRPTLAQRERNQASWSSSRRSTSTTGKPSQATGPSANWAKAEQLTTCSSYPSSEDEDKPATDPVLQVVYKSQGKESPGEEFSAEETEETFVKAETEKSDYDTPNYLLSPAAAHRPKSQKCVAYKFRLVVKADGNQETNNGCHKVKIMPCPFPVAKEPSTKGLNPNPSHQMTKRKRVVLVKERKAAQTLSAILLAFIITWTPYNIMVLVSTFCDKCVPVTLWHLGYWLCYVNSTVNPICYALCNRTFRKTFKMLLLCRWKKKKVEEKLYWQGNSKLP", "conditions": "Compound concentration 10.0 uM"}, "[12]": {"target": "Beta-3 adrenergic receptor (Homo sapiens) (UniProt P13945)", "sequence (P13945 whole entry, looked up)": "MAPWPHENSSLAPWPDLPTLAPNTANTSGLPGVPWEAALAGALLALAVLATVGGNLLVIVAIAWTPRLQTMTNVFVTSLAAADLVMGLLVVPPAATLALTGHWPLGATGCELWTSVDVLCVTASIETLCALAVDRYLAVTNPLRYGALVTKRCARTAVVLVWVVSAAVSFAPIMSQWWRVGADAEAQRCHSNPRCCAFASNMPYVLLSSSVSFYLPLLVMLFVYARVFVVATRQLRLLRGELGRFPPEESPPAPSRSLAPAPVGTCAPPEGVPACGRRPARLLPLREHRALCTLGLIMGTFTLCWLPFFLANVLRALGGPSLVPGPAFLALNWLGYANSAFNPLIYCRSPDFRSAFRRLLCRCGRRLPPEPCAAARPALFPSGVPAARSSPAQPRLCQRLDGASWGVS", "conditions": "Compound concentration 10.0 uM"}}, "note": "Activity calls are given as the source filed them. The calls are words filed in the database; no cut-off is given here."}
{"smiles": "CCCOc1ccc([C@H]2[C@H](C(=O)O)[C@@H](c3ccc4c(c3)OCO4)CN2CC(=O)Nc2c(CC)cccc2CC)cc1", "note": "[A-192621]", "values": [{"measurement": "IC50", "setting": "Endothelin-1 receptor", "value": "> 1000 nM (not active)"}, {"measurement": "IC50", "setting": "[1]", "value": "6.5 nM (active)"}, {"measurement": "inhibition", "setting": "[2]", "value": 12.8, "unit": "%"}, {"measurement": "inhibition", "setting": "[3]", "value": -0.22, "unit": "%"}, {"measurement": "inhibition", "setting": "[4]", "value": 17.3, "unit": "%"}, {"measurement": "inhibition", "setting": "[5]", "value": -3.59, "unit": "%"}, {"measurement": "inhibition", "setting": "[6]", "value": 10.6, "unit": "%"}, {"measurement": "inhibition", "setting": "[7]", "value": -2.22, "unit": "%"}, {"measurement": "inhibition", "setting": "[8]", "value": 10.4, "unit": "%"}, {"measurement": "inhibition", "setting": "[9]", "value": -5.06, "unit": "%"}, {"measurement": "inhibition", "setting": "[10]", "value": 12.5, "unit": "%"}, {"measurement": "inhibition", "setting": "[11]", "value": 27.3, "unit": "%"}, {"measurement": "inhibition", "setting": "[12]", "value": 13.3, "unit": "%"}]}
